According to patent US20250129045A1, “SMALL MOLECULE PIM AND MTOR KINASE INHIBITOR AND METHODS OF USE THEREOF” (Arizona Board of Regents on Behalf of the University of …, priority 2022, published 2025):
Entries after “also recorded” stand apart in the source; their conditions may differ.

Experiments:
PC3-LN4 cells [1] = experiment: Western blotting of PC3-LN4 cell lysates; format: cell-based, human
Experimental: (§1) FIG. 7A: In vitro co-precipitation (Co-PPT) assay was performed with recombinant EDC3 and biotinylated Pim1 using Streptavidin beads with increasing concentrations of the Pim inhibitor VBT5445 (VBT). FIG. 7B: Kinase assays were performed with recombinant EDC3 and Pim1 with increasing concentrations of VBT. FIG. 7C: Cell lysates from PC3-LN4 cells cultured with DMSO, 10 μM VBT, 3 μM AZD5363 (AKTi) and the combination for 6 hrs were subjected to western blotting (WB). […] WBs were performed using the indicated antibodies. FIG. 7E: PC3-LN4 cells were seeded into 48 well plate and incubated with either DMSO, VBT, AZD5363 or the combination, for 4.5 days. A real-time imaging system (IncuCyte™) was used to measure cell proliferation using a non-label cell monolayer confluence approach. FIG. 7F-7H: GFP image in PC3 LN4 GFP EDC3 expressing cells treated with PIMi: VBT (5 μM) and VBT (5 μM)+AZD5363 (3 μM) for 6 hrs.
Extracts were subjected to Western blotting with the indicated antibodies.
(§2) Immunoblotting: Western blots were performed as described previously. Briefly, protein lysates (30 μg) were subjected to SDS-PAGE and transferred to nitrocellulose membranes. After blocking with 5% milk in TBST buffer for 30 min at room temperature, the membranes were incubated overnight at 4° C. with the Indicated primary antibody in 3% BSA in TBST. Specific proteins were detected with the corresponding HRP conjugated secondary antibody using enhanced chemiluminescence (GE Lifesciences, Piscataway, NJ).

[2] = tested on: T-cell acute lymphoblastic leukemia cell line DU528; experiment: Cell viability (XTT) assay in T-ALL cells; format: cell-based; details: 72 h
Experimental: Cell viability (XTT) assay: T-ALL cells were seeded into 96 well plates at a density of 20,000 cells per well and treated with VBT-5445 for 72 h, using DMSO as control. Cell viability was measured using XTT cell proliferation assay (Trevigen Cat #4891-025-K) following the manufacturer's protocol. Briefly, XTT reagent was added to cell culture after the treatment and incubated for 4 h at 37° C. and 5% CO2. The absorbance of the colored formazan product was measured at 450 nm.

[3] = Tolerability by gavage in mice; format: in vivo; details: 30 mg/kg by gavage in combination with AZD5363 40 mg/kg
Description: Maximum Tolerated Dose and Side Effect Profile. […] To obtain the maximum tolerated dose (MTD), the dose will be increased by 50% over the previous one at each ensuing treatment consisting of 3 mice given daily for 5 days. Mice will be observed for fur ruffling and behavior changes. Blood will be drawn, and the WBC count and blood chemistry will be determined to evaluate bone marrow, liver, and kidney toxicity. Together with pharmacokinetic profiling, this analysis will help determine the best dose and frequency of administration for this molecule.

Pim1 and EDC3 binding = Pim1 and EDC3 binding (Homo sapiens, UniProt P11309); experiment: In vitro co-precipitation / co-immunoprecipitation of EDC3 with Pim1; details: VBT-5445 at concentrations higher than 1 μM
Experimental: as §1, with “FIGS. 7A-7I show inhibition of VBT5445 (VBT) on Pim1 and EDC3 binding and phosphorylation. FIG. 7A:” for “FIG. 7A:”

PC3-LN4 cells [4] = experiment: Cell growth assay (IncuCyte) in PC3-LN4 prostate cancer cells; format: cell-based, human; details: for prostate cancer (PC3-LN4) growth, in combination with AKT/PI3K inhibitor: combination with AZD5363 or BKM120
Experimental: as §1, with “FIGS. 7A-7I show inhibition of VBT5445 (VBT) on Pim1 and EDC3 binding and phosphorylation. FIG. 7A:” for “FIG. 7A:”
(§3) Cell growth assay: Tumor cells were seeded into 48 well plates (1000 cells/well) and treated with varied agents. The Incucyte real-time imaging system (Incucyte) was used to measure cell proliferation using a non-label cell monolayer confluence approach. The images were captured every 12 h. Graphs were generated using an integrated confluence metric as an alternative for cell numbers. At the end of the study cell growth was visualized by crystal violet staining.

Pim1 [5] = molecular target: T1, Pim1 (Homo sapiens, UniProt P11309); experiment: Surface plasmon resonance (SPR) binding of VBT5445 to Pim1; details: 500 nM PIM447 vs DMSO
Experimental: as §1, with “FIGS. 7A-7I show inhibition of VBT5445 (VBT) on Pim1 and EDC3 binding and phosphorylation. FIG. 7A:” for “FIG. 7A:”
A virtual screening effort was mounted to find chemicals that interact outside of ATP binding site of Pim screening over 100,000 compounds followed by testing the top 303 by Surface Plasmon Resonance (SPR). Synthesis of the most likely candidate was achieved by the Arizona Center for Drug Discovery at the University of Arizona. […]

Pim1 [6] = molecular target: T1, Pim1; experiment: Kinase assay with purified Pim1 and EDC3 (EDC3 S161 phosphorylation); format: biochemical; details: concentration of 1 μM
Experimental: as §1, with “FIGS. 7A-7I show inhibition of VBT5445 (VBT) on Pim1 and EDC3 binding and phosphorylation. FIG. 7A:” for “FIG. 7A:”
Computer screening followed by surface plasmon resonance (SPR) yielded a lead compound VBT-5445 that can interact with the Pim-1 protein kinase. Enhancer of mRNA Decapping 3 (EDC3) is a substrate of the Pim kinase that regulates the decapping of messenger RNA, and its activity is modulated by Pim mediated phosphorylation. […]

PC3-LN4 cells [7] = experiment: P-body (PB) number in PC3-LN4 GFP-EDC3 cells; format: cell-based, human; details: 6 h
Experimental: as §1, with “FIGS. 7A-7I show inhibition of VBT5445 (VBT) on Pim1 and EDC3 binding and phosphorylation. FIG. 7A:” for “FIG. 7A:”
To measure PB numbers, PC3-LN4 PCa cells containing a CRISPR/Cas total knock-out of EDC3 were stably transduced with GFP-EDC3. When localized in PBs, GFP spots could be quantified. PBs were quantified at the University of Colorado Center for Drug Discovery using an Opera Phenix Plus high content screening system (PerkinElmer) Perkin Elmer G3 robotic system after drug treatment. Assays were carried out in quadruplicate and the mean number of PBs per cell and cell area calculated. An example of this assay is shown using […] buffered saline (HBSS) to induce PB formation.
Immunofluorescence: Immunofluorescence (IF) staining was performed on PC3-LN4 cells stably expressing EDC3-GFP. 1×10^4 cells were seeded in each chamber of an 8 well chamber slide (Nunc Lab-Tek II Chamber Slide System, Life Technologies) and cultured for 48 h. After attaching to the chamber slides cells were treated with DMSO, VB-5445 ([…]), AZD5363 (3 μM), or the combination for 6 h. Cells were then fixed with 4% paraformaldehyde in PBS for 15 min and subsequently permeabilized with 0.2% Triton X-100 in PBS. Cells were stained with diluted DAPI (1:4000) in 1% nor-mal goat serum in PBS. Cells were mounted with Prolong Gold Antifade mounting medium (Molecular Probes).

Acetyl CoA carboxylase = Acetyl CoA carboxylase phosphorylation in LNCaP cells (Western blot); format: cell-based; details: LNCaP prostate cancer cell line
Experimental: LNCaP cells were treated in a 6 well plate with GRG-1-35 for the indicated times. Cells were scrapped and protein extracts subjected to SDS-PAGE and Western blotted with the antibodies shown.

[8] = tested on: PANC1 pancreatic cancer cells; experiment: Growth inhibition of PANC1 pancreatic cancer cells; format: cell-based
Experimental: as §3
(§4) Because of ease of growth, PANC1 pancreatic cancer cells were used to test the activity of derivatives of VBT-5445 (FIG. 14). […] Using a doxycycline inducible Pim kinase vector in these tumor cells, this inhibition of phosphorylation was proportional to the level of Pim in these cells (FIG. 9). […] Inhibition of mTORC1 is known to stimulate the feedback activation of mTORC2 leading to AKT phosphorylation. […] The effect of these compounds on mTORC1 and 2 was still evident in PC3-LN4 cells that contained a knockout (KO) using CRISPR/CAS9 of either TSC2 or DEPDC5 (FIG. 12, lanes 4-9). TSC2 KO activated the Rheb GTPase while DEPDC5 KO activated the RAG GTPase both of which stimulate mTORC1 activity. Thus, GRG compounds were capable of inhibiting mTORC1 activity even when this kinase was highly activated.

mTORC = experiment: Phosphorylation of mTORC substrates in PANC1 cells (Western blot); format: cell-based; details: overnight incubation, FIG. 19
Experimental: as §2, §4

T1 sequence (P11309 whole entry): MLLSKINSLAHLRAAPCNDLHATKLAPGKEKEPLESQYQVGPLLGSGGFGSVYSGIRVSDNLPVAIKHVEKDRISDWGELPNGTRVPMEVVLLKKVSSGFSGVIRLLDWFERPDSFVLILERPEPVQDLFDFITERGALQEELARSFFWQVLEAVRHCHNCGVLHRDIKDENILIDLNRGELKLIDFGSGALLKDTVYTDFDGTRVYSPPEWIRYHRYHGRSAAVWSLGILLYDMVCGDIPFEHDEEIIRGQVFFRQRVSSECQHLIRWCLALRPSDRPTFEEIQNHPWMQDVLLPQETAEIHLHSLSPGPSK
Pim1 and EDC3 binding, sequence (P11309 whole entry): as above

| Compound | ITGB1 protein level, combination with AZD5363 (AKTi) (PC3-LN4 cells [1]) | cellular level of Pim kinases (PC3-LN4 cells [1]) | cellular level of c-Myc protein (PC3-LN4 cells [1]) | mTORC1 activity: phosphorylation of the S6 protein (PC3-LN4 cells [1]) | growth of T-acute lymphoblastic leukemia cells [2] | weight loss or behavior changes [3] | co-immunoprecipitation of EDC3 with Pim (Pim1 and EDC3 binding) | prostate cancer (PC3-LN4) growth, in combination with AKT/PI3K inhibitor (PC3-LN4 cells [4]) | prostate cancer (PC3-LN4) growth, in combination with AKT/PI3K inhibitor (PC3-LN4 cells [4]; listed as VBT) | growth in culture of PC3-LN4 cells (PC3-LN4 cells [4]; compound alone) | increase of binding to Pim1 when PIM447 was added and bound to the ATP site (Pim1 [5]) | inhibition of EDC3 serine 161 phosphorylation by Pim1 (Pim1 [6]) | number of P-bodies, with AKT inhibitor AZD5363 added (PC3-LN4 cells [7]; combination with AZD5363 (3 μM)) | number of P-bodies (PC3-LN4 cells [7]; compound alone) | phosphorylation of acetyl CoA carboxylase (Acetyl CoA carboxylase) | growth inhibitory activity against PANC1 pancreatic cancer cells [8] | block of phosphorylation of mTORC substrates (AKT, 4E-BP1, S6) (mTORC) |
| --- | --- | --- | --- | --- | --- | --- | --- | --- | --- | --- | --- | --- | --- | --- | --- | --- | --- |
| O=c1c(CNCc2cccnc2)cc2ccc(Cl)cc2n1CCOc1ccccc1 [VBT5445] | reduced | decreases the level of all Pim kinases | decrease | blocked mTORC1 activity | inhibited the growth | without any weight loss or behavior changes | blocked the ability of Pim1 to coimmunoprecipitate with EDC3 | more active in inhibiting cancer growth | markedly inhibits the growth | markedly inhibits the growth | 3 fold | inhibited EDC3 phosphorylation | further increased these numbers; also recorded: further increase P-body formation | increased PB numbers; also recorded: induces increased numbers of P-bodies |  |  |  |
| O=c1c(CNCc2cc(Cl)ccn2)cc2ccc(Cl)cc2n1CCOc1ccccc1 [GRG-1-35] |  |  |  |  |  |  |  |  |  |  |  |  |  |  | Induction; also recorded: increased the phosphorylation of acetyl CoA carboxylase | most active | block the phosphorylation of mTORC substrates |
